Data reported in article PMC7659582 (Cell Reports Medicine, 2020).

Columns and labels:
[1] = FAERS disproportionality analysis; conditions: for EB05 TdP / EB05 VA / EB05 VT: FAERS Nov 1997 to March 31, 2015, EB05 > 2 = signal; for EB05 TdP: torsades de pointes; for EB05 VA: ventricular arrhythmia; for EB05 VT: ventricular tachycardia; for EB05: Table 2, values correspond to EB05 TdP of Table 1
[2] = Incidence of cardiac dysrhythmia in Truven Health MarketScan claims data; format: in vivo, human; conditions: for CD incidence / Incidence Rate per 1,000 Years: Table 2, MarketScan 2009-2014; for CD incidence: cardiac dysrhythmia cases; for Incidence Rate per 1,000 Years: cardiac dysrhythmia; for Delta from Background Rate: in vivo
[3] = cited from earlier work; for CredibleMeds: Table 2; for CredibleMeds Classification: Table 1, as of last access May 22, 2018
[4] = Table 1; cited from earlier work
hERG = hERG (Homo sapiens, UniProt Q12809)
Chain of hERG (Q12809 whole entry): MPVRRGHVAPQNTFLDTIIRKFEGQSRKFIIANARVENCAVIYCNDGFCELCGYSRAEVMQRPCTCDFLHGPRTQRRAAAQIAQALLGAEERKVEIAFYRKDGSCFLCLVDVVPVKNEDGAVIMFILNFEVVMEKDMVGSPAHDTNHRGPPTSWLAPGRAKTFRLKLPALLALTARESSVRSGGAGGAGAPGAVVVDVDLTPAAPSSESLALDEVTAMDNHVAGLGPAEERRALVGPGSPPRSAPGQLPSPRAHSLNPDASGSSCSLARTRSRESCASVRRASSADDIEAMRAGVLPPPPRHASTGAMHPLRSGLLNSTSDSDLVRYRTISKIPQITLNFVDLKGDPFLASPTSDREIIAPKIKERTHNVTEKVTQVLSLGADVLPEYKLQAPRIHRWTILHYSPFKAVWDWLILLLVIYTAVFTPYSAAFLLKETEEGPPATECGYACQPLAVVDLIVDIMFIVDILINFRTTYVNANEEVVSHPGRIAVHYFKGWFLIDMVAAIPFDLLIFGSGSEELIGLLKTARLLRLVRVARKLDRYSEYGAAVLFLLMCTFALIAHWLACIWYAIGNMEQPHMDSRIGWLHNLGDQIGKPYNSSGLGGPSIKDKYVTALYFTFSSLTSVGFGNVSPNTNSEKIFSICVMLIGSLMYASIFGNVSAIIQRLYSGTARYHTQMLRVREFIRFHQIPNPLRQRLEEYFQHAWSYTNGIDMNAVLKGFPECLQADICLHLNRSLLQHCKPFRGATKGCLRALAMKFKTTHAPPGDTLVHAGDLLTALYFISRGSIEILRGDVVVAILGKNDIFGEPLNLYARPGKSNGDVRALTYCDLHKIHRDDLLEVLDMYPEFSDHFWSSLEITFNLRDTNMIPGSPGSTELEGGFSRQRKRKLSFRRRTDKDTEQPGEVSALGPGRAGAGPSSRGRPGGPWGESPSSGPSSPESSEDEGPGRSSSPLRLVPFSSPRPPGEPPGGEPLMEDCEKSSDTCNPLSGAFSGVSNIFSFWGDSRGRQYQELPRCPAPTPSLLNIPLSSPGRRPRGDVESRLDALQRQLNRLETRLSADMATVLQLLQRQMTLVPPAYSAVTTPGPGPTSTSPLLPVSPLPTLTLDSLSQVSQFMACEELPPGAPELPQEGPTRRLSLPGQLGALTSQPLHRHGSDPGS

| SMILES | EB05 TdP [1] | EB05 VA [1] | EB05 VT [1] | CD incidence [2] | Incidence Rate per 1,000 Years [2] | Delta from Background Rate [2] | EB05 [1] | CredibleMeds [3] | CiPA Classification [4] | CredibleMeds Classification [3] | hERG IC50/Free Cmax Ratio (hERG) | rate of CD incidence, each patient subgroup ([2]; compared with the aggregated value, subgroups by age, gender, comorbidity index) |
| --- | --- | --- | --- | --- | --- | --- | --- | --- | --- | --- | --- | --- |
| COc1ccc(CCN(C)CCCC(C#N)(c2ccc(OC)c(OC)c2)C(C)C)cc1OC (centres unmarked) | 3.426 | 2.104 | 2.381 |  |  |  |  |  |  |  |  |  |
| CC(C)NCC(O)c1ccc(NS(C)(=O)=O)cc1 (racemic) [DL-SOTALOL] | 70.355 | 14.276 | 18.029 | 13,186 | 124.65 per 1,000 Years | 101.65 | 70.36 |  |  |  |  |  |
| CCCCc1oc2ccccc2c1C(=O)c1cc(I)c(OCCN(CC)CC)c(I)c1 [AMIODARONE] |  |  |  | 21,788 | 162.2 per 1,000 Years | 139.2 | 21.35 | risk of TdP |  |  |  |  |
| COc1ccc(CCN2CCC(Nc3nc4ccccc4n3Cc3ccc(F)cc3)CC2)cc1 [ASTEMIZOLE] | 18.549 | 1.965 | 15.499 |  |  |  |  |  | intermediate | risk of TdP |  |  |
| CN1CCN(CCCCN2C(=O)CN(/N=C/c3ccc(-c4ccc(Cl)cc4)o3)C2=O)CC1 [AZIMILIDE] | 94.351 |  | 1.381 |  |  |  |  |  | high |  | 11.50 |  |
| CC(C)COCC(CN(Cc1ccccc1)c1ccccc1)N1CCCC1 (centres unmarked) [BEPRIDIL] | 81.663 | 5.155 | 38.276 |  |  |  |  |  | high | risk of TdP |  |  |
| CN(C)CCCN1c2ccccc2Sc2ccc(Cl)cc21 [CHLORPROMAZINE] | 5.483 | 0.679 | 1.78 |  |  |  |  |  | intermediate | risk of TdP |  |  |
| COc1cc(N)c(Cl)cc1C(=O)NC1CCN(CCCOc2ccc(F)cc2)CC1OC (centres unmarked) [CISAPRIDE] | 30.654 | 5.117 | 21.801 |  |  |  |  |  | intermediate | risk of TdP |  |  |
| CC[C@H]1OC(=O)[C@H](C)[C@@H](O[C@H]2C[C@@](C)(OC)[C@@H](O)[C@H](C)O2)[C@H](C)[C@@H](O[C@@H]2O[C@H](C)C[C@H](N(C)C)[C@H]2O)[C@](C)(OC)C[C@@H](C)C(=O)[C@H](C)[C@@H](O)[C@]1(C)O [CLARITHROMYCIN] | 7.69 | 1.898 | 3.016 |  |  |  |  |  | intermediate | risk of TdP | 77.41 |  |
| CN1CCN(C2=Nc3cc(Cl)ccc3Nc3ccccc32)CC1 [CLOZAPINE] | 0.191 | 0.372 | 0.291 |  |  |  |  |  |  |  |  |  |
| CN(C)CC(c1ccc(O)cc1)C1(O)CCCCC1 (centres unmarked) [DESVENLAFAXINE] |  |  |  | 2,222 | 8.26 per 1,000 Years | −14.74 | 0.13 |  |  |  |  |  |
| COc1ccc([C@@H]2Sc3ccccc3N(CCN(C)C)C(=O)[C@@H]2OC(C)=O)cc1 [DILTIAZEM] | 2.62 | 0.925 | 1.443 |  |  |  |  |  |  |  |  |  |
| CN(CCOc1ccc(NS(C)(=O)=O)cc1)CCc1ccc(NS(C)(=O)=O)cc1 [DOFETILIDE] | 20.983 | 6.235 |  | 2,749 | 157.58 per 1,000 Years | 134.58 | 20.98 | risk of TdP |  |  |  |  |
| O=c1[nH]c2ccccc2n1CCCN1CCC(n2c(=O)[nH]c3cc(Cl)ccc32)CC1 [DOMPERIDONE] | 18.85 | 1.455 | 1.468 |  |  |  |  |  |  |  |  |  |
| O=C(CCCN1CC=C(n2c(=O)[nH]c3ccccc32)CC1)c1ccc(F)cc1 [DROPERIDOL] | 19.454 | 2.899 | 4.564 |  |  |  |  |  | intermediate | risk of TdP |  |  |
| O=C(NCC1CCCCN1)c1cc(OCC(F)(F)F)ccc1OCC(F)(F)F (centres unmarked) [FLECAINIDE] |  | 4.123 | 20.567 |  |  |  |  |  |  |  |  | > 23.0 |
| CCCCCCCN(CC)CCCC(O)c1ccc(NS(C)(=O)=O)cc1 (centres unmarked) [IBUTILIDE] | 218.45 | 2.901 | 101.022 |  |  |  |  |  | high | risk of TdP |  |  |

| SMILES | EB05 TdP [1] | EB05 VA [1] | EB05 VT [1] | CD incidence [2] | Incidence Rate per 1,000 Years [2] | Delta from Background Rate [2] | EB05 [1] | CredibleMeds [3] | CiPA Classification [4] | CredibleMeds Classification [3] | hERG IC50/Free Cmax Ratio (hERG) | rate of CD incidence, each patient subgroup ([2]; compared with the aggregated value, subgroups by age, gender, comorbidity index) |
| --- | --- | --- | --- | --- | --- | --- | --- | --- | --- | --- | --- | --- |
| CCOC(=O)N1CCC(=C2c3ccc(Cl)cc3CCc3cccnc32)CC1 [LORATADINE] | 4.873 | 0.583 | 3.043 | 2,016 | 13.07 per 1,000 Years | −9.93 | 4.87 |  | very low |  |  |  |
| CCC(=O)C(CC(C)N(C)C)(c1ccccc1)c1ccccc1 (centres unmarked) [METHADONE] | 36.408 | 1.87 | 3.998 | 1,662 | 19.73 per 1,000 Years | −3.27 | 36.41 | risk of TdP |  |  |  |  |
| COCCc1ccc(OCC(O)CNC(C)C)cc1 (centres unmarked) [METOPROLOL] | 3.176 | 1.955 | 3.318 |  |  |  |  |  |  |  |  |  |
| Cc1cccc(C)c1OCC(C)N (centres unmarked) [MEXILETINE] |  |  |  | 1,250 | 280.45 per 1,000 Years | 257.45 | 2.65 |  | very low |  | 130.11 |  |
| COC(=O)C1=C(C)NC(C)=C(C(=O)OC)C1c1ccccc1[N+](=O)[O-] [NIFEDIPINE] |  |  | 0.42 |  |  |  |  |  |  |  |  |  |
| CCOC(=O)C1=C(C)NC(C)=C(C(=O)OC)C1c1cccc([N+](=O)[O-])c1 (centres unmarked) [NITRENDIPINE] | 0.618 |  | 0.228 |  |  |  |  |  | very low |  | 50345 |  |
| Cc1nccn1CC1CCc2c(c3ccccc3n2C)C1=O (centres unmarked) [ONDANSETRON] | 15.333 | 1.281 | 6.395 |  |  |  |  |  | intermediate | risk of TdP |  |  |
| Cc1nc2n(c(=O)c1CCN1CCC(c3noc4cc(F)ccc34)CC1)CCCC2O (centres unmarked) [PALIPERIDONE] |  |  |  | 119 | 10.13 per 1,000 Years | −12.87 | 0.57 | possible risk of TdP |  |  |  |  |
| O=c1[nH]c2ccccc2n1C1CCN(CCCC(c2ccc(F)cc2)c2ccc(F)cc2)CC1 [PIMOZIDE] | 17.093 | 0.25 | 2.332 |  |  |  |  |  | intermediate | risk of TdP |  |  |
| CCCNCC(O)COc1ccccc1C(=O)CCc1ccccc1 (centres unmarked) [PROPAFENONE] |  |  |  | 6,643 | 135.17 per 1,000 Years | 112.17 | 3.38 |  |  |  |  |  |
| C=C[C@H]1C[N@@]2CC[C@H]1C[C@@H]2[C@@H](O)c1ccnc2ccc(OC)cc12 [QUINIDINE] | 35.667 | 2.768 | 12.296 | 421 | 87.75 per 1,000 Years | 64.75 | 35.67 | risk of TdP |  |  |  |  |
| COc1ccccc1OCC(O)CN1CCN(CC(=O)Nc2c(C)cccc2C)CC1 (centres unmarked) [RANOLAZINE] | 22.444 | 0.205 | 4.375 |  |  |  |  |  | very low | conditional risk of TdP |  |  |
| Cc1nc2n(c(=O)c1CCN1CCC(c3noc4cc(F)ccc34)CC1)CCCC2 [RISPERIDONE] | 1.257 | 0.543 | 0.706 | 4,066 | 18.47 per 1,000 Years | −4.53 | 1.26 | possible risk of TdP | intermediate | possible risk of TdP |  |  |
| CC/C(=C(\c1ccccc1)c1ccc(OCCN(C)C)cc1)c1ccccc1 [TAMOXIFEN] | 0.077 | 0.06 | 0.172 |  |  |  |  |  |  |  |  |  |
| CC(C)(C)c1ccc(C(O)CCCN2CCC(C(O)(c3ccccc3)c3ccccc3)CC2)cc1 (centres unmarked) [TERFENADINE] | 24.417 | 3.085 | 9.397 |  |  |  |  |  | intermediate | risk of TdP |  |  |
| COc1cc2c(Nc3ccc(Br)cc3F)ncnc2cc1OCC1CCN(C)CC1 [VANDETANIB] | 0.546 |  |  |  |  |  |  |  | high | risk of TdP |  |  |
